How the values were obtained:
M2−K 0-25 hybrid protein = target: T1, M2−K 0-25 hybrid protein (UniProt P08172+Q61743); type: cell-based, human M2, mouse Kir6.2
T1 construct: expressed in transfected cells; host or cells: Xenopus oocytes injected with cRNA (whole-cell TEVC, or outside-out patches excised from them)
T1 sequence (P08172+Q61743 with tags, fused parts or gaps): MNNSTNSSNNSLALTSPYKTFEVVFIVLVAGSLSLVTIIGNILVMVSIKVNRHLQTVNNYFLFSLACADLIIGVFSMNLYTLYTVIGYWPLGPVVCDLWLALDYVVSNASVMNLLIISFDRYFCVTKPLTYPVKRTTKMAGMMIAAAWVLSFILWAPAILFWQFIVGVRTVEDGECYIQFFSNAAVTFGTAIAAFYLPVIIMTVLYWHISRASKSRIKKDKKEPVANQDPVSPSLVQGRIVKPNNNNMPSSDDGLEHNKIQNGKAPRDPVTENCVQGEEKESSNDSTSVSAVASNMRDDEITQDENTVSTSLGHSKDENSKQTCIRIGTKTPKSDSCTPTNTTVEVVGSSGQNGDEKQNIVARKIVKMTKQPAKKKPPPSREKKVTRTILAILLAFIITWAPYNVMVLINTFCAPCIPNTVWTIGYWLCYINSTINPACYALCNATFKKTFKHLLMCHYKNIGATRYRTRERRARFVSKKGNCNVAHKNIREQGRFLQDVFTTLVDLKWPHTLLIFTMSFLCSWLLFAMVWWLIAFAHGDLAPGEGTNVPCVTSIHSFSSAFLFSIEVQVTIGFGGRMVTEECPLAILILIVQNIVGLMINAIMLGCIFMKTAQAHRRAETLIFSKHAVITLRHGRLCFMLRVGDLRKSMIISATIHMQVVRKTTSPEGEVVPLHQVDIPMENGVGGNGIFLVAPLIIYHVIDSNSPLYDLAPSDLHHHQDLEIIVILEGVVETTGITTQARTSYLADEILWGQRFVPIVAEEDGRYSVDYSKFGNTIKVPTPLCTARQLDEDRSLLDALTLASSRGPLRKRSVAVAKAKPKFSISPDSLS
Experimental: Xenopus oocytes defoliculated by collagenase treatment were microinjected with 50 nl of water containing one or a mixture of the following quantities of cRNA:
Oocytes were incubated in individual wells in Barth's solution (KCl 1 mM, MgSO4 0.82 mM, NaCl 88 mM, NaHCO3 2.4 mM, CaCl2 0.41 mM, Ca(NO3)2 0.3 mM, Hepes 16 mM, pH 7.4) supplemented with 100 U·ml^−1 penicillin, 100 μg ml^−1 streptomycin and […] gentamycin, for at least 48 hrs at 19° C. before characterization.
(§1) Whole-cell currents were measured using two-electrode voltage clamp (TEVC). Microelectrodes were filled with 3 M KCl and oocytes were bathed in a solution having (in mM): 91 KCl, 1.8 CaCl2, 1 MgCl2, 5 HEPES (pH 7.4) and 0.3 niflumic acid to block endogenous chloride current.
Unless otherwise specified, the concentration of M2 ligands was 5 μM.
(§2) The TEVC voltage protocol consisted of 500-ms steps to −50, 0 and +50 mV—during which current was measured—repeated every 5 s, the holding potential being 0 mV.
(§3) Average values are presented as mean±s.e.m. Non-linear least-square curve fitting to the data points obtained at various concentrations of activating or inhibiting ligands was done using a standard Hill equation: […]
Ba^2+ was used as a generic K^+ channel blocker. Percent changes in current were calculated with respect to the baseline extrapolated from measurements of Ba^2+-sensitive currents before and after agonist application. This method emphasizes reversibility and provides an underestimate of the true effects. For dose-response data, which were acquired by applying sequentially increasing concentrations of modulator to the same patch or oocyte, changes in current could only be measured with respect to the current before application, yielding somewhat larger values.

[1] = tested on: CCR2 chemokine receptor fused to Kir6.2 deleted in its N-terminus part; test: Electric flux of CCR2-Kir6.2 fusion protein; type: cell-based; settings: final concentration from about 0.3 μM to about 2 μM
Sequence of CCR2 chemokine receptor fused to Kir6.2 deleted in its N-terminus part (P41597 1-313 limits assumed): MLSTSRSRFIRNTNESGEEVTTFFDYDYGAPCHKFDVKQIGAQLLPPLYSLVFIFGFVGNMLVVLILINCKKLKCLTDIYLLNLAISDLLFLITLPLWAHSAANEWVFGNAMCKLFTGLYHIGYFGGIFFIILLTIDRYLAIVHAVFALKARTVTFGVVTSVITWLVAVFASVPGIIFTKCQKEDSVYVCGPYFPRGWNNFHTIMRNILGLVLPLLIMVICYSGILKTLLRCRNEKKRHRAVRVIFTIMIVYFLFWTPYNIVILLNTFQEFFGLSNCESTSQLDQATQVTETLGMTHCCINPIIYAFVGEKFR

M2−K 0-20 hybrid protein = target: T2, M2−K 0-20 hybrid protein (UniProt P08172+Q61743); test: TEVC recordings from xenopus oocytes expressing M2−K 0-20; type: cell-based, human M2, mouse Kir6.2
T2 construct: expressed in transfected cells; host or cells: Xenopus oocytes injected with cRNA
T2 sequence (P08172+Q61743 with tags, fused parts or gaps): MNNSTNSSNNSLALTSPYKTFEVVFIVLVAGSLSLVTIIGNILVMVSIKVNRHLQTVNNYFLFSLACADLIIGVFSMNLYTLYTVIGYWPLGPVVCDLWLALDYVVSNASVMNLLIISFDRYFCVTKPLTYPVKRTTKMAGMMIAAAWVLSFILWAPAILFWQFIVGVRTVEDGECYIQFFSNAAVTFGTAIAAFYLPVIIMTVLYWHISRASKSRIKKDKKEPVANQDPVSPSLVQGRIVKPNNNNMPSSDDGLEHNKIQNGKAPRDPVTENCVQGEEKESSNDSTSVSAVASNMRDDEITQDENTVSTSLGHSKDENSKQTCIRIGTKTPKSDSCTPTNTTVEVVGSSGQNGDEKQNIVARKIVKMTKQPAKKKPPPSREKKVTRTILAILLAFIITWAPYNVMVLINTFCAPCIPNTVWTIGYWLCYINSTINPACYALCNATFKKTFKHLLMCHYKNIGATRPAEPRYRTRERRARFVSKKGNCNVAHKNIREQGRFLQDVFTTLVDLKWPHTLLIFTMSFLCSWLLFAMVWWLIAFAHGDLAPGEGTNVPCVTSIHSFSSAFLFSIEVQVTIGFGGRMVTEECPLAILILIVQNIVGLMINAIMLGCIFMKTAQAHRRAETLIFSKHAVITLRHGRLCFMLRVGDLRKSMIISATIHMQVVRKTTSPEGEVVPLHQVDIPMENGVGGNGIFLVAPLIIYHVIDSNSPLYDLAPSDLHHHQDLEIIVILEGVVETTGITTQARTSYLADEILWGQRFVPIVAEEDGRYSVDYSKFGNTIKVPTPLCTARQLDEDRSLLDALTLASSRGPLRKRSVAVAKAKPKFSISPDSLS
Experimental: as §1, §2, §3
(§4) Ba^2+ was used as a generic K^+ channel blocker. Percent changes in current were calculated with respect to the baseline extrapolated from measurements of Ba^2+-sensitive currents before and after agonist application.

D2-K 0-25 hybrid protein = D2-K 0-25 hybrid protein (UniProt P14416+Q61743); settings: sulpiride 5 μM during quinpirole 5 μM
Sequence of D2-K 0-25 hybrid protein (P14416+Q61743 fused): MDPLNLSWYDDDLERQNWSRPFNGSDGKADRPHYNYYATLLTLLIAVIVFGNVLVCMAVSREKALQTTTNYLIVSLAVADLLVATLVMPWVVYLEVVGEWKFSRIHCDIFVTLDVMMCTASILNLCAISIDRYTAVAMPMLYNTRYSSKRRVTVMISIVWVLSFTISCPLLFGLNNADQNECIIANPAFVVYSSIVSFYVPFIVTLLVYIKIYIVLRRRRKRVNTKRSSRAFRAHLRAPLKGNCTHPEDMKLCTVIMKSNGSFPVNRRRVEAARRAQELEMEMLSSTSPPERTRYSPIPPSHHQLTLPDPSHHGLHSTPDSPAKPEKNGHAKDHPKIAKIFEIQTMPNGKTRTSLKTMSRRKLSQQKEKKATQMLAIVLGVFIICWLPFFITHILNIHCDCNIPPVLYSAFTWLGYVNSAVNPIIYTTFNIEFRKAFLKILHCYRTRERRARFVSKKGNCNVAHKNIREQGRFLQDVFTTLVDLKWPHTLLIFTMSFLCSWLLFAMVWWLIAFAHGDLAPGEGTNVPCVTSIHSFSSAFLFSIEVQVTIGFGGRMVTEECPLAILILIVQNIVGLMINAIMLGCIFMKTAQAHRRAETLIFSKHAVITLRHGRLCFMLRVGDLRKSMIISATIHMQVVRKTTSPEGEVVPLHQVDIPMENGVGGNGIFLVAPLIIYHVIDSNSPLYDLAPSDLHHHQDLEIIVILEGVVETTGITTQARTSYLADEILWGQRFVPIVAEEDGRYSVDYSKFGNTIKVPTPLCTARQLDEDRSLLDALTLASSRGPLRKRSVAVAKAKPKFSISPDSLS
Experimental: as §1, §2, §3, §4

NCCc1ccc(O)c(O)c1 [Dopamine]
sensitivity of M2−K 0-25 to Dopa (M2−K 0-25 hybrid protein; Dopa 5 μM, TEVC): insensitive

CCL2: CCR2 agonist: CCL2 or MCP1
generation of electric flux after stimulating the receptor [1]: generation of an electric flux

CN1[C@@H]2CC[C@H]1C[C@@H](OC(=O)C(CO)c1ccccc1)C2 (stereo partly shown) [atropine]
effect of antagonist on ACh-induced current (M2−K 0-25 hybrid protein): inhibits the ACh-induced current | effect of antagonist on ACh-induced current (M2−K 0-20 hybrid protein; atropine 1 μM with ACh 5 μM): inhibits the ACh-induced current

C[N+](C)(C)CCOC(N)=O [CCh, carbachol]
change of current induced by CCh (dose response) (M2−K 0-25 hybrid protein; increasing CCh concentrations, M2−K 0-25): stimulated, in a dose-dependent manner | change of current induced by CCh (dose response) (M2−K 0-20 hybrid protein; increasing CCh concentrations): stimulated, in a dose-dependent manner

CCN1CCCC1CNC(=O)c1cc(S(N)(=O)=O)ccc1OC (stereo not shown) [sulpiride]
effect of antagonist on quinpirole-induced decrease in current (D2-K 0-25 hybrid protein): reversed

— patent US20110159520A1, “HYBRID PROTEINS COMPRISING MEMBRANE RECEPTOR AND ION CHANNEL, AND THEIR USE AS BIOSENSORS” (UNIVERSITE JOSEPH FOURIER, priority 2008, published 2011)
